Our source for the EC50, inhibition and IC50 values is US20120088827A1 (Profectus Biosciences, Inc., priority 2009, published 2012).

One test deals with IL-6. Put plainly: Inhibition of IL-6 release in LPS-stimulated RAW 264.7 cells. Conditions: Mus musculus, RAW264.7; pretreated 2 hours, 1 μg/mL LPS 20-24 hours. The format is cell-based. On the procedure:
RAW 264.7 cells were seeded at 4×10^4 cells per well in complete growth medium in 96 well white TC plates with clear bottoms one day prior to the assay. The next day the cells were washed once and 100 μL fresh growth media was added. Cells were pretreated with 0.5 μL from a 6 point 200× dilution series of the test compounds in DMSO for 2 hours. Following pretreatment with the drugs, the inflammatory response was induced by adding 5 μL of a 20 μg/mL solution of LPS (Sigma). The cells were incubated in the presence of the drugs and 1 μg/mL LPS for another 20-24 hours. Typically after treatment the total DMSO was […] of the culture volume and the final concentrations of the compounds were approximately: 40, 20, 10, 1, 0.2 and 0 μM depending on the MW of each compound. Modified dilution series were prepared as needed to get adequate dose response curves without changing the % DMSO. Samples were run in duplicate or triplicate and included DMSO treated control wells with and without LPS stimulation. Drugs with a known activity such as Parthenolide or DHMEQ were run as experimental controls. After 20-24 hours LPS activation, the media supernatant was collected from the cells and replaced with fresh media. The supernatant samples were cleared by centrifugation at 1,000×g for 5 minutes, transferred to fresh storage plates, and stored frozen at −30° C.
After determining the appropriate supernatant dilutions experimentally, mIL-6 levels in the supernatants were quantified using Quantikine™ mouse IL-6 Immunoassay (R&D Systems) according to the manufacturer's protocol. Approximately 50 μL of the supernatants diluted in Calibrator Diluent were added to 50 μL of Assay Diluent in microplate wells pre-coated with an anti-mouse IL-6 capture antibody. Controls included a calibrated positive IL-6 control sample, non-specific binding (NSB) wells containing Calibrator Diluent but no IL-6, and a recombinant mouse IL-6 standard dilution series (10-1000 pg/mL). The plates were incubated at room temperature for 2 hours with shaking and then washed 5 times with 400 μL 1× Wash Buffer. Approximately 100 μL of an HRP-conjugated anti-mouse IL-6 antibody was added to each well to detect IL-6 captured on the plate. The plates were incubated at room temperature for 2 hours and then washed 5 times with 400 μl 1× Wash Buffer. Equal volumes of Color Reagents A and B were mixed and 100 μL of this HRP Substrate Solution was added to each well on the plate. The blue color was allowed to develop for 30 minutes and then the reaction was stopped using 100 μL of Stop Solution yielding a yellow color. Absorbance at 450 nm with a reference wavelength subtracted at 595 nm was recorded using a Becton-Dickinson DTX 880 Multimode Detector.
The concentration of mIL-6 in the unknown samples was determined from a curve-fit of the mIL-6 standard absorbance data and multiplying by the dilution factor. The maximum activity achieved in the absence of the inhibitor (DMSO+LPS treated wells) was arbitrarily given a value of 100%; likewise the minimum activity in the absence of the stimulant (no LPS) was assigned a value of 0% Inhibition of the amount of mIL-6 cytokine released in the drug treated wells was calculated relative to the maximum activation in the DMSO+LPS treated control wells (i.e., % inhibition=100−(drug+LPS treated)/(DMSO+LPS treated)). Dose response curves were used to determine the effective concentration to inhibit 50% of the mIL-6 cytokine released (IC50) by means of a SigmaPlot macro which fits a sigmoidal dose-response curve to the (log 10) μM concentration versus % inhibition. […] This technique yields an objective value for the IC50 provided that 50% inhibition was approached at the concentrations tested.

The target of a further test is T1, c-Rel (Homo sapiens, UniProt Q04864).
T1 sequence (Q04864 1-619): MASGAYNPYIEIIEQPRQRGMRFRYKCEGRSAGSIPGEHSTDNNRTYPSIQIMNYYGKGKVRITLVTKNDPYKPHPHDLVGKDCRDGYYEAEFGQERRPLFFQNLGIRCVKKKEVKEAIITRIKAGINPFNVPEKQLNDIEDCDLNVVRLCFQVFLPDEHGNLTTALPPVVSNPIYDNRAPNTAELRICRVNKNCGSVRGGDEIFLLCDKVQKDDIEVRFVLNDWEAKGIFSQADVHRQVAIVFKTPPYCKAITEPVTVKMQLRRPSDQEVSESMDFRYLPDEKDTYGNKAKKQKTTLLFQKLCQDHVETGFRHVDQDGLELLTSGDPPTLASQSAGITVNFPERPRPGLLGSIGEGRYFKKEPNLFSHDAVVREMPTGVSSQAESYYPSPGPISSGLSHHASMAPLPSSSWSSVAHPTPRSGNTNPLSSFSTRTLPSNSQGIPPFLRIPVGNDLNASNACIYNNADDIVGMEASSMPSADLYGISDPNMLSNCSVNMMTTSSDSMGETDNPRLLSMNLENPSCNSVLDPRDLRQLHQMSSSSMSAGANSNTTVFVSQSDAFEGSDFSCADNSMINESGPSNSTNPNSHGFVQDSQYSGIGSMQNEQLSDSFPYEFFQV
Put plainly: TransAM NF-κB Family DNA Binding ELISA, c-Rel. On the procedure: (§1) The binding activity of NF-κB heterodimer or homodimer subunits from activated nuclear extracts or purified recombinant NF-κB proteins exposed to the drug compounds was evaluated using the TransAM NF-κB Family binding ELISA (Active Motif). Approximately 3-5 μg of nuclear extracts from TNFα activated Hela or Raji cells (Active Motif) or 20 ng of purified recombinant proteins (p65 and p50 from Active Motif, p52 from Santa Cruz) were incubated for 1 hour at room temperature with 20 μL drug compounds diluted in Complete Lysis buffer without DTT. Treated samples were then transferred to 30 μL Complete Binding Buffer (with DTT) in microplate wells pre-coated with the NF-κB consensus oligonucleotide. […] The plate was incubated for 1 hour at room temperature with gentle shaking and then washed 3 times with 200 μL 1× Wash Buffer. NF-κB p65, p50, p52, RelB, or c-Rel subunits bound to the plate were detected with 100 μL of the primary antibody (diluted 1:1000 in 1× Antibody Buffer) specific for that subunit. The plate was incubated for 1 hour at room temperature and then washed 3 times with 200 μL 1× Wash Buffer. Next, 100 μL of a HRP conjugated goat anti-rabbit antibody (diluted 1:1,000 in 1× Antibody Buffer) was added to each well. The plate was incubated for 1 hour at room temperature and then washed 4 times with 200 μL 1× Wash Buffer. 100 μL of room temperature Developing Solution was added to each well. The reaction was allowed to develop for 2-10 minutes until a medium dark blue color developed (depending on the subunit activity in the lot of extract or lot of recombinant protein used) and then the reaction was stopped with 100 μL Stop Solution yielding a yellow color. Absorbance was recorded using a Becton-Dickinson DTX 880 Multimode Detector at 450 nm with a reference wavelength subtracted at 620 nm.

Another test deals with T2, NF-κB p65 (Homo sapiens, UniProt Q04206).
T2 construct: purchased Active Motif
T2 sequence (Q04206 whole entry): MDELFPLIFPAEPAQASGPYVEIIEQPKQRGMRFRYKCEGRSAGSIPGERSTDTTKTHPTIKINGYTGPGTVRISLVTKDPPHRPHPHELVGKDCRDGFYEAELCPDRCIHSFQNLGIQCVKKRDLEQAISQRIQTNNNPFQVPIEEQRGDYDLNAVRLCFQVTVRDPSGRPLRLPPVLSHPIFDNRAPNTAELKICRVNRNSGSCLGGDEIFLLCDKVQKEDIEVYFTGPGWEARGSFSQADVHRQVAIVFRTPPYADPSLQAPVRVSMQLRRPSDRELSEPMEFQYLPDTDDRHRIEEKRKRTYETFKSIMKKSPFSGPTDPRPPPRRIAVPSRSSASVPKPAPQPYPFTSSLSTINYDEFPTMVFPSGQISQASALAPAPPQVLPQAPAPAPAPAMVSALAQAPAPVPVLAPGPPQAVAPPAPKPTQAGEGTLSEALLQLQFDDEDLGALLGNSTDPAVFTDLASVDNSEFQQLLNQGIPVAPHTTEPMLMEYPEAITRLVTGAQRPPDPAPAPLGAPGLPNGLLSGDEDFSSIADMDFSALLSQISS
Put plainly: TransAM NF-κB Family DNA Binding ELISA, p65. The following applies: binding to NF-κB consensus oligonucleotide; read-out: p65 binding IC50. On the procedure: as §1

Consider `CC(C)CC(=O)Oc1ccccc1C(=O)NC1=CC(=O)C2OC2C1O` (racemic) [Example 1, (±)-2-(2-hydroxy-5-oxo-7-oxabicyclo[4.1.0]hept-3-en-3-ylcarbamoyl)phenyl 3-methylbutanoate], for which the EC50 in the test on IL-6 is 500 nM. Further, the inhibition at 5 µM on c-Rel is 1%. The IC50 at NF-κB p65 is 214000 nM.
For `CC(C)OC(=O)Oc1ccccc1C(=O)NC1=CC(=O)C2OC2C1OC(=O)OC(C)C` (racemic) [Example 2, (±)-3-(2-isopropoxycarbonyloxy-benzoylamino)-5-oxo-7-oxa-bicyclo[4.1.0]hept-3-en-2-yl ester isopropyl ester] the same measures were 1300 nM, 0% and more than 376000 nM.
For `O=C(CC1CCCCC1)Oc1ccccc1C(=O)NC1=CC(=O)C2OC2C1O` (racemic) [Example 3, (±)-2-(2-hydroxy-5-oxo-7-oxabicyclo[4.1.0]hept-3-en-3-ylcarbamoyl)phenyl 2-cyclohexylacetate], the EC50 in the test on IL-6 is 720 nM. On c-Rel, this compound gave an inhibition at 5 µM of 3%. For the same compound, the IC50 at NF-κB p65 worked out at 93000 nM.
The like results for `CCCC(C)C(=O)Oc1ccccc1C(=O)NC1=CC(=O)C2OC2C1O` (racemic) [Example 4, (±)-2-(2-hydroxy-5-oxo-7-oxabicyclo[4.1.0]hept-3-en-3-ylcarbamoyl)phenyl 2-methylpentanoate] were, in that order, 450 nM, 9% and 149000 nM.
The like results for `CCCCC(CC)C(=O)Oc1ccccc1C(=O)NC1=CC(=O)C2OC2C1O` (racemic) [Example 5, (±)-2-(2-hydroxy-5-oxo-7-oxabicyclo[4.1.0]hept-3-en-3-ylcarbamoyl)phenyl 2-ethylhexanoate] were, in that order, 440 nM, 9% and more than 430000 nM.
The like results for `CC(C)(C)CC(=O)Oc1ccccc1C(=O)NC1=CC(=O)C2OC2C1O` (racemic) [Example 6, (±)-2-(2-hydroxy-5-oxo-7-oxabicyclo[4.1.0]hept-3-en-3-ylcarbamoyl)phenyl 3,3-dimethylbutanoate] were, in that order, 350 nM, 6% and 67000 nM.
For the compound `CC(C)OC(=O)Oc1ccccc1C(=O)NC1=CC(=O)C2OC2C1O` (racemic) [Example 7, (±)-2-(2-hydroxy-5-oxo-7-oxabicyclo[4.1.0]hept-3-en-3-ylcarbamoyl)phenyl isopropyl carbonate], the EC50 in the test with IL-6 amounted to 1700 nM. The inhibition at 5 µM on c-Rel was found to be 5%. Besides, at NF-κB p65, the IC50 was more than 480000 nM.
As to `CC(C)OC(=O)OC1C(NC(=O)c2ccccc2O)=CC(=O)C2OC21` (racemic) [Example 8], in the test with IL-6, the EC50 was 1500 nM. Besides, at 5 µM the inhibition on c-Rel was 2%. In addition, the IC50 on NF-κB p65 worked out at 336000 nM.
